According to PubChem BioAssay (NCI):
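Results reflect a 48-hour exposure of cells in 96-well plates to compound at five concentrations. GI50 marks 50% less growth. The concentration for full growth arrest is given as TGI.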

Key:
Experiment in all cases: NCI anticancer screen, dose series, 48 h
[1] = system: MALME-3M melanoma
[2] = system: K-562 leukemia
[3] = system: A549 NSCLC
[4] = system: RXF 393 renal
[5] = system: MDA-MB-231 breast
[6] = system: M14 melanoma
[7] = system: COLO 205 colon
[8] = system: HOP-92 NSCLC
[9] = system: 786-0 renal
[10] = system: LOX IMVI melanoma
[11] = system: OVCAR-5 ovarian
[12] = system: SW-620 colon
[13] = system: MOLT-4 leukemia
[14] = system: SK-MEL-2 melanoma
[15] = system: CCRF-CEM leukemia
[16] = system: SK-MEL-5 melanoma
[17] = system: UACC-62 melanoma
[18] = system: UO-31 renal
[19] = system: KM12 colon
[20] = system: A498 renal
[21] = system: SR leukemia
[22] = system: SF-539 CNS
[23] = system: IGROV1 ovarian
[24] = system: NCI-H23 lung
[25] = system: RPMI-8226 leukemia
[26] = system: UACC-257 melanoma
[27] = system: NCI-H522 lung
[28] = system: HOP-62 NSCLC
[29] = system: OVCAR-4 ovarian
[30] = system: NCI-H460 lung
[31] = system: ACHN renal
[32] = system: SF-268 CNS
[33] = system: NCI/ADR-RES ovarian
[34] = system: TK-10 renal
[35] = system: MCF7 breast
[36] = system: SN12C renal
[37] = system: PC-3 prostate
[38] = system: SNB-19 CNS
[39] = system: HCT-116 colon
[40] = system: NCI-H226 lung
[41] = system: SK-MEL-28 melanoma
[42] = system: HT29 colon
[43] = system: DU-145 prostate
[44] = system: SK-OV-3 ovarian
[45] = system: T-47D breast
[46] = system: OVCAR-8 ovarian
[47] = system: HL-60(TB) leukemia
[48] = system: OVCAR-3 ovarian
[49] = system: MDA-MB-435
[50] = system: BT-549 breast
[51] = system: U251 CNS
[52] = system: HS 578T breast
[53] = system: HCC-2998 colon
[54] = system: CAKI-1 renal

Cc1ccc(S(=O)c2ccc([N+](=O)[O-])c3nonc23)cc1 (stereo not drawn)
GI50 [1]: 2.23 µM | TGI [1]: 5.12 µM | GI50 [2]: 3.02 µM | TGI [2]: 9.18 µM | GI50 [3]: 18.7 µM | TGI [3]: 39.5 µM | GI50 [4]: 2.33 µM | TGI [4]: 5.53 µM | GI50 [5]: 10.1 µM | TGI [5]: 22.6 µM | GI50 [6]: 11 µM | TGI [6]: 23.7 µM | GI50 [7]: 1.9 µM | TGI [7]: 3.43 µM | GI50 [8]: 4.09 µM | TGI [8]: 17.2 µM | GI50 [9]: 13.2 µM | TGI [9]: 26.2 µM | GI50 [10]: 5.88 µM | TGI [10]: 19.2 µM | GI50 [11]: 9.5 µM | TGI [11]: 26.2 µM | GI50 [12]: 2.18 µM | TGI [12]: 5 µM | GI50 [13]: 2.64 µM | TGI [13]: 6.96 µM | GI50 [14]: 17.8 µM | TGI [14]: 35.8 µM | GI50 [15]: 2.3 µM | TGI [15]: 6.27 µM | GI50 [16]: 14.8 µM | TGI [16]: 28.5 µM | GI50 [17]: 7.25 µM | TGI [17]: 20.2 µM | GI50 [18]: 2.4 µM | TGI [18]: 9.54 µM | GI50 [19]: 15.8 µM | TGI [19]: 31.1 µM | GI50 [20]: 11.8 µM | TGI [20]: 26.4 µM | GI50 [21]: 3.39 µM | TGI [21]: > 100 µM | GI50 [22]: 19 µM | TGI [22]: 39.3 µM | GI50 [23]: 12.2 µM | TGI [23]: 27.4 µM | GI50 [24]: 14.1 µM | TGI [24]: 30.4 µM | GI50 [25]: 3.62 µM | TGI [25]: 25.5 µM | GI50 [26]: 11.6 µM | TGI [26]: 23.9 µM | GI50 [27]: 1.57 µM | TGI [27]: 2.98 µM | GI50 [28]: 16.2 µM | TGI [28]: 30.8 µM | GI50 [29]: 3.08 µM | TGI [29]: 9.24 µM | GI50 [30]: 17.7 µM | TGI [30]: 38.6 µM | GI50 [31]: 1.92 µM | TGI [31]: 3.75 µM | GI50 [32]: 15 µM | TGI [32]: 29.9 µM | GI50 [33]: 15.8 µM | TGI [33]: 48.9 µM | GI50 [34]: 2.53 µM | TGI [34]: 5.51 µM | GI50 [35]: 5.53 µM | TGI [35]: 21.9 µM | GI50 [36]: 15 µM | TGI [36]: 31.3 µM | GI50 [37]: 12.8 µM | TGI [37]: 27.1 µM | GI50 [38]: 14.7 µM | TGI [38]: 33.9 µM | GI50 [39]: 1.82 µM | TGI [39]: 3.39 µM | GI50 [40]: 15.7 µM | TGI [40]: 43.2 µM | GI50 [41]: 9.15 µM | TGI [41]: 23.3 µM | GI50 [42]: 4.08 µM | TGI [42]: 22 µM | GI50 [43]: 7.87 µM | TGI [43]: 20.9 µM | GI50 [44]: 18.8 µM | TGI [44]: 34.3 µM | GI50 [45]: 2.04 µM | TGI [45]: 4.59 µM | GI50 [46]: 6.89 µM | TGI [46]: 22.4 µM | GI50 [47]: 3.09 µM | TGI [47]: 8.93 µM | GI50 [48]: 2.23 µM | TGI [48]: 4.78 µM | GI50 [49]: 10.2 µM | TGI [49]: 26 µM | GI50 [50]: 10.1 µM | TGI [50]: 21.7 µM | GI50 [51]: 16 µM | TGI [51]: 35 µM | GI50 [52]: 21.1 µM | TGI [52]: 60.2 µM | GI50 [53]: 15.6 µM | TGI [53]: 29.4 µM | GI50 [54]: 3.12 µM | TGI [54]: 11.3 µM
